System: Patients diagnosed with Alzheimer's Disease
Test: Adverse events and discontinuation in 5-month slow-titration trial
Format: in vivo, human
Experimental: Subjects in the Placebo group received 21 weeks (5 months) of placebo medication.
The safety of the drug was also monitored throughout the study. Blood samples for biochemistry and haematology and random urine sample for urinalysis were taken at each visit and at completion for all efficacy testing. Systolic and diastolic blood pressure were measured in the sitting position, pulse and vital signs were recorded at each visit.

## COc1ccc2c3c1O[C@H]1C[C@@H](O)C=C[C@@]31CCN(C)C2 [GAL, galantamine]
8 mg/day
  Agitation: % of patients: (15.0%)
  Agitation: number of patients: 21
  Anorexia: % of patients: (5.7%)
  Anorexia: number of patients: 8
  Bradycardia: % of patients: (3.6%)
  Bradycardia: number of patients: 5
  Convulsions: number of patients: 0
  DC due to adverse event: %: 6%
  DC due to adverse event: N: 9
  DC due to inefficacy: %: 1 (1%)
  DC due to inefficacy: N: 1 (1%)
  Depression: % of patients: (2.9%)
  Depression: number of patients: 4
  Diarrhea: % of patients: (5.0%)
  Diarrhea: number of patients: 7
  Dizziness: % of patients: (5.0%)
  Dizziness: number of patients: 7
  Dyspepsia: % of patients: (2.9%)
  Dyspepsia: number of patients: 4
  Edema peripheral: % of patients: (6.4%)
  Edema peripheral: number of patients: 9
  Fall: % of patients: (7.9%)
  Fall: number of patients: 11
  Fatigue: % of patients: (2.1%)
  Fatigue: number of patients: 3
  Headache: % of patients: (3.6%)
  Headache: number of patients: 5
  Injury: % of patients: (3.6%)
  Injury: number of patients: 5
  Muscle weakness: % of patients: (0.7%)
  Muscle weakness: number of patients: 1
  Nausea: % of patients: (5.7%)
  Nausea: number of patients: 8
  Rhinitis: % of patients: (6.4%)
  Rhinitis: number of patients: 9
  Serious adverse event Abdominal pain: %: (0.0%)
  Serious adverse event Abdominal pain: number: 0
  Serious adverse event Agitation: %: (1.4%)
  Serious adverse event Agitation: number: 2
  Serious adverse event Asthenia: %: (0.0%)
  Serious adverse event Asthenia: number: 0
  Serious adverse event Basal cell carcinoma: %: (0.0%)
  Serious adverse event Basal cell carcinoma: number: 0
  Serious adverse event Breast neoplasm female: %: (0.0%)
  Serious adverse event Breast neoplasm female: number: 0
  Serious adverse event Cardiac failure: %: (0.0%)
  Serious adverse event Cardiac failure: number: 0
  Serious adverse event Dehydration: %: (0.0%)
  Serious adverse event Dehydration: number: 0
  Serious adverse event Diarrhea: %: (0.0%)
  Serious adverse event Diarrhea: number: 0
  Serious adverse event Dyspnea: %: (0.0%)
  Serious adverse event Dyspnea: number: 0
  Serious adverse event Fall: %: (2.9%)
  Serious adverse event Fall: number: 4
  Serious adverse event Gi haemorrhage: %: (0.0%)
  Serious adverse event Gi haemorrhage: number: 0
  Serious adverse event Injury: %: (0.7%)
  Serious adverse event Injury: number: 1
  Serious adverse event Myocardial infarction: %: (2.1%)
  Serious adverse event Myocardial infarction: number: 3
  Serious adverse event Nausea: %: (0.0%)
  Serious adverse event Nausea: number: 0
  Serious adverse event Pneumonia: %: (0.7%)
  Serious adverse event Pneumonia: number: 1
  Serious adverse event Sepsis: %: (0.0%)
  Serious adverse event Sepsis: number: 0
  Serious adverse event Surgical intervention: %: (0.0%)
  Serious adverse event Surgical intervention: number: 0
  Serious adverse event Syncope: %: (0.7%)
  Serious adverse event Syncope: number: 1
  Serious adverse event Thrombophlebitis deep: %: (0.0%)
  Serious adverse event Thrombophlebitis deep: number: 0
  Serious adverse event Transient ischemic attack: %: (0.7%)
  Serious adverse event Transient ischemic attack: number: 1
  Serious adverse event Urinary tracq infection: %: (0.7%)
  Serious adverse event Urinary tracq infection: number: 1
  Serious adverse event Vomiting: %: (0.0%)
  Serious adverse event Vomiting: number: 0
  Syncope: % of patients: (1.4%)
  Syncope: number of patients: 2
  Total discontinued (DC): %: 23%
  Total discontinued (DC): N: 32
  Total patients with any SAE: %: (10.0%)
  Total patients with any SAE: number: 14
  Urinary tract infection: % of patients: (7.9%)
  Urinary tract infection: number of patients: 11
  Vomiting: % of patients: (3.6%)
  Vomiting: number of patients: 5
  Weight decrease: % of patients: (1.4%)
  Weight decrease: number of patients: 2
16 mg/day
  Agitation: % of patients: (10.0%)
  Agitation: number of patients: 28
  Anorexia: % of patients: (6.5%)
  Anorexia: number of patients: 18
  Bradycardia: % of patients: (2.5%)
  Bradycardia: number of patients: 7
  Convulsions: number of patients: 0
  DC due to adverse event: %: 7%
  DC due to adverse event: N: 19
  DC due to inefficacy: N: 0
  Depression: % of patients: (8.6%)
  Depression: number of patients: 24
  Diarrhea: % of patients: (12.2%)
  Diarrhea: number of patients: 34
  Dizziness: % of patients: (5.4%)
  Dizziness: number of patients: 15
  Dyspepsia: % of patients: (4.7%)
  Dyspepsia: number of patients: 13
  Edema peripheral: % of patients: (2.9%)
  Edema peripheral: number of patients: 8
  Fall: % of patients: (5.05%)
  Fall: number of patients: 14
  Fatigue: % of patients: (3.6%)
  Fatigue: number of patients: 10
  Headache: % of patients: (6.8%)
  Headache: number of patients: 19
  Injury: % of patients: (4.3%)
  Injury: number of patients: 12
  Muscle weakness: % of patients: (1.1%)
  Muscle weakness: number of patients: 3
  Nausea: % of patients: (13.3%)
  Nausea: number of patients: 37
  Rhinitis: % of patients: (3.2%)
  Rhinitis: number of patients: 9
  Serious adverse event Abdominal pain: %: (0.7%)
  Serious adverse event Abdominal pain: number: 2
  Serious adverse event Agitation: %: (0.4%)
  Serious adverse event Agitation: number: 1
  Serious adverse event Asthenia: %: (0.7%)
  Serious adverse event Asthenia: number: 2
  Serious adverse event Basal cell carcinoma: %: (0.0%)
  Serious adverse event Basal cell carcinoma: number: 0
  Serious adverse event Breast neoplasm female: %: (0.0%)
  Serious adverse event Breast neoplasm female: number: 0
  Serious adverse event Cardiac failure: %: (1.1%)

Reference: patent US20030139391A1 (priority 2000, published 2003)
